test: Antioxidant activity assessed as […] radical scavenging activity; format: functional; design: concentration or dose not given beside the values

Row | SMILES | Activity
1 | O=c1cc(-c2ccc(O)c(O)c2)oc2cc(O)ccc12 | 84.9%
2 | O=c1c(O)c(-c2ccc(O)c(O)c2)oc2cc(O)ccc12 | 85.2%
3 | O=c1c(O)c(-c2ccc(O)c(O)c2)oc2ccccc12 | 85.7%
4 | O=c1c(O)c(-c2cc(O)c(O)c(O)c2)oc2cc(O)ccc12 | 79.9%
5 | O=c1cc(-c2ccc(O)c(O)c2)oc2cc(O)c(O)cc12 | 86.4%
6 | O=c1c(O)c(-c2cccc(O)c2O)oc2ccc(O)cc12 | 86.6%
7 | O=c1c(O)c(-c2ccccc2O)oc2ccc(O)cc12 | 86.8%
8 | O=c1cc(-c2cc(O)c(O)c(O)c2)oc2cc(O)cc(O)c12 | 88.1%
9 | O=c1c(O)c(-c2cc(O)c(O)c(O)c2)oc2cc(O)cc(O)c12 | 79.5%
10 | O=c1cc(-c2ccc(O)c(O)c2)oc2ccc(O)cc12 | 83.9%
11 | O=c1cc(-c2ccc(O)cc2)oc2cc(O)c(O)c(O)c12 | 69.9%
12 | O=c1cc(-c2ccccc2)oc2c(O)c(O)cc(O)c12 | 58.8%
13 | O=c1c(O)c(-c2cc(O)c(O)cc2O)oc2ccc(O)cc12 | 85.6%
14 | O=c1c(O)c(-c2ccc(O)cc2O)oc2cc(O)cc(O)c12 | 81.5%
15 | O=c1c(O)c(-c2ccc(O)c(O)c2)oc2cc(O)cc(O)c12 | 87.8%
16 | O=c1cc(-c2ccccc2O)oc2c(O)c(O)ccc12 | 79.9%
17 | O=c1c(O)c(-c2ccc(O)cc2O)oc2ccc(O)cc12 | 86.3%
18 | O=c1cc(-c2cc(O)c(O)c(O)c2)oc2cc(O)ccc12 | 88.8%
19 | O=c1c(O)c(-c2ccccc2)oc2cc(O)cc(O)c12 | 52.5%
20 | O=c1cc(-c2cccc(O)c2)oc2c(O)c(O)ccc12 | 87.1%
21 | O=c1cc(-c2cc(O)cc(O)c2)oc2ccccc12 | 61.8%
22 | O=c1cc(-c2ccc(O)c(O)c2)oc2c(O)c(O)ccc12 | 87.4%
23 | O=c1c(O)c(-c2ccc(O)c(O)c2)oc2c(O)c(O)cc(O)c12 | 85.4%
24 | O=c1cc(-c2cccc(O)c2O)oc2ccc(O)cc12 | 87.1%
25 | O=c1c(O)c(-c2ccccc2O)oc2c(O)c(O)ccc12 | 83.1%
26 | O=c1c(O)c(-c2ccccc2O)oc2ccccc12 | 69.3%
27 | O=c1c(O)c(-c2ccc(O)cc2)oc2cc(O)cc(O)c12 | 77.2%
28 | O=c1c(O)c(-c2ccc(O)c(O)c2)oc2ccc(O)cc12 | 86.7%
29 | O=c1c(O)c(-c2ccccc2)oc2cccc(O)c12 | 58.3%
30 | O=c1c(O)c(-c2ccccc2O)oc2cc(O)cc(O)c12 | 86.5%

Reference: ChEMBL document CHEMBL1221328, “Relationships between structures of hydroxyflavones and their antioxidative effects” (Bioorg Med Chem Lett, 2010)
